From publication PMC6429214, “Design, Synthesis and Biological Evaluation of Isoxazole-Based CK1 Inhibitors Modified with Chiral Pyrrolidine Scaffolds” (Molecules, 2019)
Structures can show the parent of a compound that is named as a salt.

Key:
[1] = tested on: HT-29 cells; assay: MTT cell viability assay HT-29; assay type: cell-based, human; conditions: mean ± SD
Description: (§1) The human colon adenocarcinoma cell line HT-29 was grown in McCoy’s 5A medium, whereas MCF7 cells were grown in DMEM medium. All media were supplemented with 10% fetal calf serum (FCS), 100 units/mL penicillin, 100 µg/mL streptomycin and 2 mM glutamine. All cells were grown at 37 °C in a humidified 5% carbon dioxide atmosphere.
(§2) In order to analyze the effects of selected inhibitors on the cell viability of HT-29 and MCF7 cells, MTT assays were performed. 1 × 10^4 cells/well were seeded in 96-well cell culture plates. After 24 h cells were treated with increasing concentrations of the indicated inhibitor compounds, with untreated and DMSO-treated cells as control. After an incubation period of 48 h, 10 µL of MTT solution (5 mg/mL in PBS) were added and cells were incubated for 4 h. MTT-containing medium was carefully removed and 100 µL acidic isopropanol (0.04 N HCl in isopropanol) per well were added. To dissolve formazan crystals, plates were shaken for 30 min on an orbital shaker in the dark. Finally, dissolved crystals were measured spectrophotometrically at 570 nm. All experiments were performed in triplicate with four technical replicates per assay. Results were normalized considering the mean optical density value of control wells as 100%. GraphPad Prism 6 software (San Diego, CA, USA) was used to calculate EC50 values.

[2] = biological target: T1, human GST-CK1ε (Homo sapiens, UniProt P49674); assay: in-vitro kinase assay CK1ε; assay type: biochemical; conditions: 10 µM ATP, mean ± SD, n = 3; for remaining activity at 10 µM: read-out: CK1ε Residual Activity [%] at 10 µM ± SD
T1 construct: purchased Invitrogen PV3500
Description: (§3) In vitro kinase assays have been performed to both screen, as well as to calculate IC50 values of the compounds for CK1δ and ε. Each reaction was carried out using 2 μCi ^32P-γ-ATP in kinase buffer containing 25 mM Tris-HCl (pH = 7.5), 10 mM MgCl2, 100 µM EDTA, and 10 µM ATP. […] Recombinant human CK1δ transcription variant 1 (expressed and purified as GST fusion protein as described earlier) and human GST-CK1ε (PV3500; Invitrogen) were used as sources of enzyme, while α-casein (C6780; Sigma-Aldrich) was used as substrate. Kinase reactions were incubated for 30 min at 30 °C and then stopped with loading dye (50 mM Tris-HCl (pH = 6.8), 5% (v/v) β-mercaptoethanol (MSH), 10% (v/v) glycerol, 2% (w/v) sodium dodecyl sulfate (SDS), 0.1% (w/v) bromphenol blue). Subsequently, reactions were separated by sodium dodecyl sulfate polyacrylamide gel electrophoresis (SDS-PAGE) and phosphorylated protein bands were visualized on dried gels by autoradiography. The phosphorylated substrate protein bands were excised, and phosphorylation was quantified by Cherenkov counting. Dose-response analyses and calculation of IC50 values were carried out using GraphPad Prism 6 statistical software (San Diego, CA, USA).

[3] = tested on: MCF-7 cells; assay: MTT cell viability assay MCF-7; assay type: cell-based, human; conditions: mean ± SD
Description: as §1, §2

[4] = biological target: T2, human CK1δ transcription variant 1 (Homo sapiens, UniProt P48730); assay: in-vitro kinase assay CK1δ; assay type: biochemical; conditions: 10 µM ATP, mean ± SD, n = 3; for remaining activity at 10 µM: read-out: CK1δ Residual Activity [%] at 10 µM ± SD
T2 construct: made in house; own knowledge
Excerpt: Human CK1δ transcription variant 1 (CK1δ TV1_NM_001893.4) has been amplified from the cDNA obtained from HT1080 cell line, using CK1δ_forward-primer: 5′-GGATCCATGGAGCTGAGAGTCGGGAACAG-3′ and CK1δ_reverse primer: 5′-GGATCCTCATCGGTGCACGACAGACTGA-3′. The CK1δ DNA construct was cloned into pSC-A cloning vector (Agilent technologies, Munich, Germany) with BamHI enzyme, to generate plasmids pGEX6-P3-GST-CK1δ TV1 (FP1417). Overexpression and purification of GST-CK1δ TV1 protein has been performed as described before.
as §3

[5] = tested on: IRAK4; conditions: cited from earlier work
[6] = MTT cell viability assay HT-29; assay type: cell-based, human; conditions: human, HT-29 cells, mean ± SD
Description: as §1, §2

[7] = MTT cell viability assay MCF-7; assay type: cell-based, human; conditions: human, MCF-7 cells, mean ± SD
Description: as §1, §2

[8] = LC-MS of aqueous solutions with and without PEG; assay type: physicochemical; conditions: LC-MS over 7 days, not in solutions without PEG
Excerpt: Since all analytical data for the originally employed inhibitors was consistent with the given structures, we postulate that the incorporation of an additional methylene group occurred via spontaneous Pictet-Spengler cyclization during crystallization. In line with this notion, PEG, which has been used in our soaking solutions, is known to generate formaldehyde traces that have been shown in the past to affect the derivatization of both, proteins and ligands. To further corroborate this hypothesis, we examined whether simple exposure of 29d/e to formaldehyde would give rise to the same Pictet-Spengler products 31a/b (Scheme 5). Indeed, when compounds 29d/e were treated with formaldehyde at room temperature 31a/b were formed readily and the obtained spectroscopic data was consistent with the predicted Pictet-Spengler products. In addition, aqueous solutions of 29d and 29e with and without PEG were analyzed by liquid chromatography-mass spectrometry (LC-MS) over a period of 7 days.
LC-MS was performed with a Bruker Esquire ~LC ion trap mass spectrometer (Bremen, Germany) in the positive ion mode (dry gas 9 L/min, nebulizer 35 psi, drying temperature 350 °C) after chromatographic separation using an Agilent 1100 HPLC system (Waldbronn, Germany) with a RP-8 column (Agilent Eclipse XDB-C8, 150 × 4.6 mm, 5 μm) and a 0.1% acetic acid/acetonitrile gradient.

T1 sequence (P49674 whole entry): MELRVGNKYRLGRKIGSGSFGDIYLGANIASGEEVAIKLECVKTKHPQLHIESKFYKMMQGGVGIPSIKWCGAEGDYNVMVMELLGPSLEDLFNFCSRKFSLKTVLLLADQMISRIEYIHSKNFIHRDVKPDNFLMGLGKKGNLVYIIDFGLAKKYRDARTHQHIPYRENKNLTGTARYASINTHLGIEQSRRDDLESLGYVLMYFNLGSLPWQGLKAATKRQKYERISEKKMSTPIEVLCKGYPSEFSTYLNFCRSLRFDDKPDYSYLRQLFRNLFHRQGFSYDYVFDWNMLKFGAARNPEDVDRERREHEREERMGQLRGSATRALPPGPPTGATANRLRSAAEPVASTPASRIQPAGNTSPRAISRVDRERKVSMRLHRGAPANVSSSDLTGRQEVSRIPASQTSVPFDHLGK

## COc1ccc(-c2cc(C(=O)Nc3cc(-c4c(-c5ccc(F)cc5)noc4C(C)C)ccn3)n3c2CN2C[C@@H](O)[C@@H](O)[C@@H]2C3)cc1 [31b, (1S,2R,10aS)-N-{4-[3-(4-Fluorophenyl)-5-isopropylisoxazol-4-yl]pyridin-2-yl}-1,2-dihydroxy-6-(4-methoxyphenyl)-2,3,10,10a-tetrahydro-1H,5H-dipyrrolo[1,2-a:1’,2’-d]pyrazine-8-carboxamide]
[1]; 48 h
  EC50: 1.4 ± 0.2 µM
[1]; Homo sapiens, HT-29, 48 h
  EC50: < 2 µM
[2]
  IC50: 0.196 ± 0.026 µM
[3]; 48 h
  EC50: 1.9 ± 0.3 µM
[3]; Homo sapiens, MCF7, 48 h
  EC50: < 2 µM
[4]
  IC50: 0.024 ± 0.004 µM

## COc1ccc(-c2cc(C(=O)Nc3cc(-c4c(-c5ccc(F)cc5)noc4C(C)C)ccn3)n(C[C@H]3NC[C@H](O)[C@@H]3O)c2)c(OC)c1 [29f]
[1]; Homo sapiens, HT-29, 48 h, 5 µM
  viability at 5 µM: 50 ± 10%
[1]; Homo sapiens, HT-29, 48 h, 10 µM
  viability at 10 µM: 25 ± 5%
[1]; Homo sapiens, HT-29, 48 h, 20 µM
  viability at 20 µM: 9.4 ± 3%
[1]; Homo sapiens, HT-29, 48 h
  EC50: 5.4 ± 0.4 µM
[2]
  IC50: 0.1 ± 0.014 µM
[2]; 10 µM compound
  remaining activity at 10 µM: 9.7 ± 1.6%
[3]; Homo sapiens, MCF7, 48 h, 5 µM
  viability at 5 µM: 87 ± 5%
[3]; Homo sapiens, MCF7, 48 h, 10 µM
  viability at 10 µM: 33 ± 7%
[3]; Homo sapiens, MCF7, 48 h, 20 µM
  viability at 20 µM: 3.9 ± 0.2%
[3]; Homo sapiens, MCF7, 48 h
  EC50: 9.6 ± 0.8 µM
[4]
  IC50: 0.037 ± 0.004 µM
[4]; 10 µM compound
  remaining activity at 10 µM: 2.8 ± 0.5%

## COc1ccc(-c2cc(C(=O)Nc3cc(-c4c(-c5ccc(F)cc5)noc4C(C)C)ccn3)n(CC3NCC(O)C3O)c2)cc1 (centres unmarked) (as salt: trifluoroacetate) [29e]
other
  melting point: 188 to 191 °C

## COc1ccc(-c2cc(C(=O)Nc3cc(-c4c(-c5ccc(F)cc5)noc4C(C)C)ccn3)n3c2CN2C[C@H](O)[C@H](O)[C@H]2C3)cc1 [31a, (1R,2S,10aR)-N-{4-[3-(4-Fluorophenyl)-5-isopropylisoxazol-4-yl]pyridin-2-yl}-1,2-dihydroxy-6-(4-methoxyphenyl)-2,3,10,10a-tetrahydro-1H,5H-dipyrrolo[1,2-a:1’,2’-d]pyrazine-8-carboxamide]
[1]; 48 h
  EC50: 1.1 ± 0.1 µM
[1]; Homo sapiens, HT-29, 48 h
  EC50: < 2 µM
[2]
  IC50: 0.056 ± 0.005 µM
[3]; 48 h
  EC50: 1.3 ± 0.2 µM
[3]; Homo sapiens, MCF7, 48 h
  EC50: < 2 µM
[4]
  IC50: 0.011 ± 0.001 µM

## COc1ccc(-c2cc(C(=O)Nc3cc(-c4c(-c5ccc(F)cc5)noc4C(C)C)ccn3)n(CC3NCC(O)C3O)c2)cc1 (centres unmarked) (as salt: trifluoroacetate) [29d]
other
  melting point: 191 to 193 °C

## CC(C)c1onc(-c2ccc(F)cc2)c1-c1ccnc(NC(=O)c2cccn2C[C@H]2NC[C@H](O)[C@@H]2O)c1 [29c, (2R,3R,4S)-2-{[2-({4-[3-(4-Fluorophenyl)-5-isopropylisoxazol-4-yl]pyridin-2-yl}carbamoyl)-1H-pyrrol-1-yl]methyl}-3,4-dihydroxypyrrolidin-1-ium trifluoroacetate]
[6]
  viability at 48 h, 5 µM: 80 ± 16%
  viability at 48 h, 10 µM: 78 ± 11%
[1]; Homo sapiens, HT-29, 48 h
  EC50: 24 ± 6 µM
[2]
  IC50: 1.5 ± 0.3 µM
[2]; 10 µM compound
  remaining activity at 10 µM: 18 ± 1%
[7]
  viability at 48 h, 5 µM: 90 ± 10%
  viability at 48 h, 10 µM: 81 ± 5%
[3]; Homo sapiens, MCF7, 48 h
  EC50: 39 ± 12 µM
[4]
  IC50: 0.45 ± 0.07 µM
[4]; 10 µM compound
  remaining activity at 10 µM: 7.7 ± 0.2%

## COc1ccc(-c2cc(C(=O)Nc3cc(-c4c(-c5ccc(F)cc5)noc4C(C)C)ccn3)n(C)c2)cc1 [28a, N-{4-[3-(4-Fluorophenyl)-5-isopropylisoxazol-4-yl]pyridin-2-yl}-4-(4-methoxyphenyl)-1-methyl-1H-pyrrole-2-carboxamide]
[6]
  viability at 48 h, 5 µM: 111 ± 19%
  viability at 48 h, 10 µM: 98 ± 22%
  viability at 48 h, 20 µM: 78 ± 10%
[2]; 10 µM compound
  remaining activity at 10 µM: 70 ± 21%
other
  melting point: 157 to 158 °C
[7]
  viability at 48 h, 5 µM: 103 ± 16%
  viability at 48 h, 10 µM: 88 ± 9%
  viability at 48 h, 20 µM: 54 ± 5%
[4]; 10 µM compound
  remaining activity at 10 µM: 48 ± 7%

## Cc1cc(Nc2ncc(-c3nc4ccncc4s3)c(N[C@@H]3C[C@H](CO)[C@@H](O)[C@H]3O)n2)cc(C)n1 [compound 4]
[5]
  IC50: 0.0003 µM

## COc1ccc(-c2cc(C(=O)Nc3cc(-c4c(-c5ccc(F)cc5)noc4C(C)C)ccn3)n(CC3NCC(O)C3O)c2)cc1 (centres unmarked) [29e]
[1]; 5 µM, 48 h
  HT-29 Cell Viability [%] 5 µM: 75 ± 13%
[1]; 10 µM, 48 h
  HT-29 Cell Viability [%] 10 µM: 42 ± 10%
[1]; 20 µM, 48 h
  HT-29 Cell Viability [%] 20 µM: 11 ± 3%
[1]; 48 h
  EC50: 8.8 ± 0.8 µM
[2]
  IC50: 0.063 ± 0.009 µM
[2]; 10 µM compound
  CK1ε Residual Activity [%] at 10 µM ± SD: 14 ± 3%
[8]
  formation of Pictet-Spengler products in aqueous solution with PEG: significant product formation
[3]; 5 µM, 48 h
  MCF-7 Cell Viability [%] 5 µM: 90 ± 27%
[3]; 10 µM, 48 h
  MCF-7 Cell Viability [%] 10 µM: 58 ± 18%
[3]; 20 µM, 48 h
  MCF-7 Cell Viability [%] 20 µM: 8.0 ± 3.4%
[3]; 48 h
  EC50: 10 ± 2 µM
[4]
  IC50: 0.047 ± 0.004 µM
[4]; 10 µM compound
  CK1δ Residual Activity [%] at 10 µM ± SD: 3.4 ± 0.7%

## COc1ccc(-c2cc(C(=O)Nc3cc(-c4c(-c5ccc(F)cc5)noc4C(C)C)ccn3)n(C)c2)c(OC)c1 [28b, 4-(2,4-Dimethoxyphenyl)-N-{4-[3-(4-fluorophenyl)-5-isopropylisoxazol-4-yl]pyridin-2-yl}-1-methyl-1H-pyrrole-2-carboxamide]
[6]
  viability at 48 h, 5 µM: 94 ± 23%
  viability at 48 h, 10 µM: 59 ± 14%
  viability at 48 h, 20 µM: 52 ± 10%
[2]; 10 µM compound
  remaining activity at 10 µM: 47 ± 11%
[7]
  viability at 48 h, 5 µM: 89 ± 13%
  viability at 48 h, 10 µM: 84 ± 11%
  viability at 48 h, 20 µM: 79 ± 12%
[4]; 10 µM compound
  remaining activity at 10 µM: 48 ± 4%
